Measured values taken from patent US9707201B2 (Leptrex Ltd, priority 2013, dated 2017).
“Also recorded” adds a separate entry of the source.

What was measured:
[1] = Thiosulfinate half-life in 100% aqueous garlic extract solution by quantitative HPLC; type: physicochemical; conditions: buffer, 100% aqueous solution, mean (SD), n=3, read-out: Half-Life (hours) at 20° C.
[2] = Thiosulfinate half-life in aqueous ethanol garlic extract solutions by quantitative reverse phase HPLC; type: physicochemical; conditions: buffer, initial allicin 400 ppm, mean (SD), n=3
Method: The solutions were prepared from a single stock aqueous garlic extract solution that was diluted with the appropriate volume of ethanol to produce the 25%, 50% and 75% ethanol garlic aqueous extract solutions. The aqueous stock solution of garlic extract assayed by HPLC was determined to have an allicin content of 1600 ppm (1600 mg allicin in 1000 ml water) and each of the 25%, 50% and 75% ethanol:aqueous dilutions prepared from the aqueous garlic extract stock solution were prepared to provide an initial allicin concentration of 400 ppm.
The decomposition profiles of MeS(O)SAll and AllS(O)SMe (the MA-AM mixture collectively referred to as Analogue-1), AllS(O)SAll (Allicin, Analogue-2) and AllS(O)SPn-(E,Z) (Analogue-3) thiosulfinates were then determined by quantitative reverse phase HPLC. The quantitative HPLC procedure involved determining the relative concentrations of each thiosulfinate in the various solutions at the various ageing temperatures as a function of the time that each solution was stored at a carefully controlled temperature. The initial measurement of the concentration value for each thiosulfinate determined immediately after freshly prepared solutions were prepared provides the 100% thiosulfinate concentration value for the start time (time zero) at which the time-lapse thermal decomposition measurements started to commence.
The quantitative HPLC data recorded for the MA-AM mixture (Analogue-1), allicin (Analogue-2) and AllS(O)SPn-(E,Z) (Analogue-3) established that each thiosulfinate was subject to a first-order exponential decay process when the 25%, 50% and 75% aqueous:ethanol garlic extract solutions were stored (aged) through the temperature range 40-20° C. FIGS. 2-4 show exponential decay profiles obtained for MA-AM (Analogue-1), allicin (Analogue-2) and AllS(O)SPn-(E,Z) (Analogue-3)—FIGS. 2-4 produced from data obtained from the HPLC analyses of the same single sample whose solvent composition was ethanol:water (25:75% by volume) with an initial allicin concentration of 400 ppm. The decay profiles were obtained using ORIGIN version 6.1 software (Origin is a registered trade mark of OriginLab Corporation) software that determined the best fit for decomposition profiles as being first-order exponential decay. From the decomposition profiles shown in FIGS. 2-4 it is possible to interpolate to determine the time required for each thiosulfinate to decompose to 50% of its initial concentration level that had been initially measured at the outset when controlled temperature storage started.

[3] = test system: MRSA clinical isolate QMUL301; assay: Standard agar diffusion test, zones of inhibition; type: cell-based, methicillin-resistant Staphylococcus aureus; conditions: for Activity of the solution after storage: aqueous solution stored at 17° C. for 56 days
Method: The activity of powders and liquids was determined using standard agar diffusion tests. Susceptibility of isolates by measuring the zones of inhibition around a measured amount of the anti-microbial agent.
Bacteria: MRSA clinical isolate QMUL301 was used. Overnight broth cultures in isosensitest broth were prepared. These were diluted to give a final concentration of 10^5 cfu/ml
Media: Isosensitest agar (Oxoid Ltd).
• A broth containing 10^5 cfu/ml was prepared in peptone water. • 0.2 ml was spread over each isosensitest plate. • Plates were air dried and a 6 mm well cut in the centre of the plate. • A volume of 100 ul of liquid or 100 ug of solid was added to each well. • Plates were incubated overnight at 37° C. • The presence of zones of inhibition around a well is indicative of biological activity being present. No zone around the 6 mm well, (as with the negative control) represented no biological activity.

[4] = Ageing of aqueous FG + P-1 reaction solution at 40° C., thiosulfinate content by HPLC; type: physicochemical; conditions: for A4 Peak Integration Value × 10^−4: 240 nm
Method: Similar studies were conducted with an aqueous solution of analogue 4 (MMTSO) produced by the method of process 6a, as set out in row 4 of table 23.
1. The reaction mixture (12.0 g FG+400 mg P-1+70 ml H2O) was filtered immediately after 4 hour reaction time and served as the stock solution for this study.
2. The filtered solution was divided into 2 portions. One to be stored frozen and the other to be stored at 40° C.
3. The portion of filtered solution to be used to determine the half-life of A4 was placed in a sealed glass bottle that was placed in an oven that provided a stable temperature of 40° C.
4. At irregular intervals a sample of the aqueous solution was withdrawn and analysed by HPLC.
FIGS. 57-60 show the chromatogram obtained after 0, 120, 168 and 672 hours respectively. Their concentrations are set out below in table 32: […]

[5] = type: physicochemical; conditions: buffer
Method: 1. Aqueous solutions were prepared using 70 ml water and 6 g McCormick garlic powder, along with methiin or alliin in the proportions shown in table 37 below. The liquid in the top row was prepared from a blend of the following liquids:
2. All solutions were prepared at a temperature of 21° C. with the garlic powder reaction mixture being stirred for 3 hours. At the end of the 3 hour stirred reaction period, the solutions were filtered and immediately assayed by HPLC for their respective A-1, A-2 and A-4 content. These initial concentration values were considered as Time Zero values. 3. After Time Zero thiosulfinate concentrations had been obtained, the solutions were stored at stable temperatures within accurate temperature regulated ovens. 4. Samples of each temperature stored aqueous solution were withdrawn at appropriate time intervals and assayed by HPLC for A-1, A-2 and A-4 content. The decay of the blended liquid can be seen in FIGS. 64, 65 and 66. […] 5. The decomposition profile graphs for MMTSO, MA-AM and Allicin are shown in FIGS. 67, 68 and 69 respectively. These figures were constructed by expressing their respective HPLC peak area integration values measured at 240 nm as a function of sample storage time to obtain Relative % Concentration values. In all cases the best fit was obtained with MicroCal Origin s/w using a first order exponential decay fit. In FIG. 67, the half-life value was obtained by interpolating the time at which the A-4 (MMTSO) peak provides ½ integral value of that initially obtained for A-4 peak at Time Zero. Half-life for A-4 at 55° C. was determined as 51.1 hrs. Similarly in FIG. 68, the half-life value was obtained by interpolating the time at which A-1 (MA-AM) peak provides ½ integral value of that initially obtained for A-1 peak at Time Zero. Half-life for A-1 was determined as 30.2 hrs. Once again, the half-life value was obtained by interpolating the time at which A-2 (Allicin) peak provides ½ integral value of that initially obtained for A-2 peak at Time Zero. Half-life for A-2 is determined as 9.4 hrs.

[6] = test system: herpes simplex virus types 1 and 2, parainfluenza virus type 3 and rhinovirus type 2; conditions: in vitro, compounds present in garlic extracts; cited from earlier work
Helicobacter pylori = conditions: Canizares et al. 2004; cited from earlier work
[7] = aqueous solution, 0 hours aged at 40° C.
[8] = aqueous solution, 120 hours aged at 40° C.
[9] = aqueous solution, 168 hours aged at 40° C.
[10] = aqueous solution, 672 hours aged at 40° C.
[11] = aqueous solution (12.0 g FG + 400 mg P-1 + 70 ml H2O), 0 hours aged at 40° C.

Compound C=CC[S+]([O-])SC=CC (stereo not shown) has a half-life ([1]; initial allicin (A-2) concentration 375 ppm) of 140 h, a half-life ([1]; initial allicin (A-2) concentration 1500 ppm) of 77.2 h and a half-life ([2]; 25% EtOH, 20° C.) of 8040 min. The half-life ([2]; 25% EtOH, 25° C.) was 3970 min, the half-life ([2]; 25% EtOH, 30° C.) was 2370 min and the half-life ([2]; 25% EtOH, 35° C.) was 1500 min. It also gave a half-life ([2]; 25% EtOH, 40° C.) of 918 min, a half-life ([2]; 50% EtOH, 20° C.) of 12200 min and a half-life ([2]; 50% EtOH, 25° C.) of 7280 min. It also gave a half-life ([2]; 50% EtOH, 30° C.) of 3940 min, a half-life ([2]; 50% EtOH, 35° C.) of 1730 min and a half-life ([2]; 50% EtOH, 40° C.) of 1040 min. For the same compound, the half-life ([2]; 75% EtOH, 20° C.) was 9640 min, the half-life ([2]; 75% EtOH, 25° C.) was 4400 min and the half-life ([2]; 75% EtOH, 30° C.) was 2810 min. For the same compound, the half-life ([2]; 75% EtOH, 35° C.) was 1820 min and the half-life ([2]; 75% EtOH, 40° C.) was 1060 min.

With CS[S+](C)[O-] (stereo not shown) [Analogue A-4, methyl methyl-thiosulfinate] the “Activity of the solution after storage” value [3] was “remains active”, the “Antimicrobial activity against MRSA” value ([3]; aqueous solutions) was “significant antimicrobial activity; also recorded: at least the same level of antimicrobial activity against MRSA as A-2” and the A-4 ppm ([4]; aqueous solution (Red Spot), stored at 40° C. for 672 hours) was 1597 ppm. For the same compound, the “A4 concentration converted from peak integration value” [4, 7] was “(=2410 ppm)”, the “A4 Peak Integration Value × 10^−4” value [4, 7] was 1153 and the “A4 Peak Integration Value × 10^−4” value [4, 8] was 1074. The “A4 Peak Integration Value × 10^−4” value [4, 9] was 1004, the “A4 Peak Integration Value × 10^−4” value [4, 10] was “(743)” and the “A4 Peak Integration Value × 10^−4” value ([4]; aqueous solution, 672 hours aged at 40° C., listed as A4) was 764. It also gave a Half-Life hrs [5] of 51.1 h.

With “methyl allyl-thiosulfinate (MA) and its structural isomer allyl methyl-thiosulfinate (AM) [Analogue A-1]” the “concentration (ppm)” value [4, 11] was 843 ppm, the “concentration (ppm)” value [4, 8] was 415 ppm and the “concentration (ppm)” value [4, 9] was 314 ppm. The “concentration (ppm)” value [4, 10] was 35 ppm and the Half-Life hrs [5] was 30.2 h.

For “allyl allyl-thiosulfinate [Analogue A-2, reference compound]”, the “Activity of the solution after storage” value [3] is given as “lost all measurable activity”, the Virucidal activity [6] is given as “possess virucidal activity” and the “concentration (ppm)” value [4, 11] is given as 47 ppm. For the same compound, the Half-Life hrs [5] was 9.4 h and the “Inhibition of the in vitro growth of Helicobacter pylori” value (Helicobacter pylori) was “show inhibition”.
